Format in all cases: biochemical
One assay addresses T1, VIM-2 (Escherichia coli, UniProt Q5U7L7).
T1 construct: purchased GenScript Biotech Co., Ltd
Description: Enzyme activity test (FC5 fluorescent substrate), VIM-2. The settings on record: enzyme 25 pM, substrate FC5 20 μM. The method, then: (§1) Compound stock solution: the compound was prepared as a 50 mM DMSO stock solution. […] After aliquoting, the compound stock solutions were stored at −20° C.
(§2) Preparation and storage of antibiotic substrate stock solution: antibiotic fluorescent substrate FC5 was synthesized internally and prepared as a 2 mM stock solution, which was stored at −20° C. after aliquoting.
(§3) Storage of β-lactamases: each […] was synthesized by GenScript Biotech Co., Ltd., and stored at −80° C. after aliquoting to avoid repeated freezing and thawing.
(§4) Preparation of enzyme activity reaction buffer: SBL buffer: PBS pH 7.4, 0.01% (v/v) Triton X-100; MBL buffer: 50 Mm HEPES in PBS pH 7.2, 1 μM ZnSO4, 1 μg/mL BSA, 0.010% v/v Triton X-100
(§5) a) The compound to be tested and buffer were taken out and warmed to room temperature.
(§6) b) Each compound was diluted with DMSO and buffer to the initial experimental concentration (Table 2), and then the compound was diluted 3-fold for a total of 10 concentrations.
(§7) c) Diluted compounds were added to wells 1 to 20 of a 384-well black plate at 2 replicate wells per concentration, 5 μL per well. 5 µL of DMSO was added to wells 21 to 24.
(§8) d) Each enzyme was diluted to the experimental concentration (Table 2) in SBL and MBL buffers, and finally 35 μL/well was added, with a total of 22 wells. 35 μL buffer was added to wells 23 to 24. Wells 21 to well 22 served as the maximum test values (Max), while wells 23 to 24 were designated as the minimum test values (Min).
(§9) e) The 384-well plate was centrifuged quickly and incubated for 10 minutes at room temperature.
(§10) f) The antibiotic substrate FC5 was diluted in buffer to the experimental concentration of each enzyme (Table 2).
(§11) g) The incubated 384-well plate was taken out and FC-5 was added to wells […]. The 384-well plate was centrifuged rapidly and promptly transferred to a microplate reader for reading.
(§12) h) The fluorescence intensity was measured at 355 nm excitation light/460 nm emission light in the microplate reader, and the fluorescence intensity was measured every three minutes for a total of 10 measurements.
(§13) Initial velocity of enzyme reaction V: Subtract the background reading (Min wells) without enzyme from each fluorescence intensity reading, and then perform on a linear regression analysis on each compound concentration group. The slope is the initial velocity of enzyme reaction (V) at each compound concentration.
(§14) Dose-effect curve and IC50 calculation of compounds: The initial velocity of enzyme reaction under the effect of each concentration of compounds was subjected to nonlinear regression fitting. The IC50 (half-maximal inhibitory concentration) of each compound was calculated using the formula […] (Vi: the initial velocity of enzyme reaction at each compound concentration; V0: initial velocity of enzyme reaction without the compound (Max wells). The software used was Graphpad prism 8.

In assay [1] the test system is four classes of β-lactamase, A, B, C, and D. Description: Enzyme activity test, summary by β-lactamase class. The method, then: as §1, §2, §3, §4, §5, §6, §7
d) Each enzyme was diluted to the experimental concentration (Table 2) in SBL and MBL buffers, and finally 35 μL/well was added, with a total of 22 wells. 35 μL buffer was added to wells 23 to 24. […]
as §11, §12
(§15) Initial velocity of enzyme reaction V: Subtract the background reading (Min wells) without enzyme from each fluorescence intensity reading, and then perform on a linear regression analysis on each compound concentration group. […]

Another assay deals with T2, IMP-1 (Serratia marcescens, UniProt P52699).
T2 construct: purchased GenScript Biotech Co., Ltd
T2 sequence (P52699 19-246 limits assumed): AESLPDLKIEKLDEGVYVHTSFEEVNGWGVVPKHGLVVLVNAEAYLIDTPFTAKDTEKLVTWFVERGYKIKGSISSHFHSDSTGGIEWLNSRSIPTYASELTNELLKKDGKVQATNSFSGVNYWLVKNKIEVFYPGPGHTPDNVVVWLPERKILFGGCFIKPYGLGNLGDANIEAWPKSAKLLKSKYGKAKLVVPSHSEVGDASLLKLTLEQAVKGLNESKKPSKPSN
In words: Enzyme activity test (FC5 fluorescent substrate), IMP-1. The following applies: enzyme 20 pM, substrate FC5 15 μM. The method, then:
as §1, §2, §3, §4, §5, §6, §7, §8, §9, §10, §11, §12, §13, §14

The target of the next assay is T3, NDM-1 (Klebsiella pneumoniae, UniProt C7C422).
T3 construct: purchased GenScript Biotech Co., Ltd
T3 sequence (C7C422 29-270 limits assumed): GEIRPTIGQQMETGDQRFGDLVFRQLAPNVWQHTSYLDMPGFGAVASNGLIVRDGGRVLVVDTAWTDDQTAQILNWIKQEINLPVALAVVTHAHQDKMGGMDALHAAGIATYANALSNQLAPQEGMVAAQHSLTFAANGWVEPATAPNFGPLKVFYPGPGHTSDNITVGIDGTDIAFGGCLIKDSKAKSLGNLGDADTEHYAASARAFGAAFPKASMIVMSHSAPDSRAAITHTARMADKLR
Description: Enzyme activity test (FC5 fluorescent substrate), NDM-1. The following applies: enzyme 6 pM, substrate FC5 15 μM, MBL buffer. The method, then:
as §1, §2, §3, §4, §5, §6, §7, §8, §9, §10, §11, §12, §13, §14

The target of a further assay is T4, VIM-1 (Pseudomonas aeruginosa, UniProt A0A0F7KYQ8).
T4 construct: purchased GenScript Biotech Co., Ltd
In words: Enzyme activity test (FC5 fluorescent substrate), VIM-1. The settings on record: enzyme 70 pM, substrate FC5 10 μM. On the procedure: as §1, §2, §3, §4, §5, §6, §7, §8, §9, §10, §11, §12, §13, §14

A further assay deals with T5, OXA-10 (Pseudomonas aeruginosa, UniProt P14489).
T5 construct: purchased GenScript Biotech Co., Ltd
T5 sequence (P14489 20-266): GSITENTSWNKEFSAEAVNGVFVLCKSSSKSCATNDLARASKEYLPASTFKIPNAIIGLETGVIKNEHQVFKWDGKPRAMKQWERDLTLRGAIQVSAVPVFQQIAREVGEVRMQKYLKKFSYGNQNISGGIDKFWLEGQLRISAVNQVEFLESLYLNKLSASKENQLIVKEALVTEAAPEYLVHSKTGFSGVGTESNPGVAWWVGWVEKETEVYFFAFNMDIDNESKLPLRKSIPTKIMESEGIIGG
In words: Enzyme activity test (FC5 fluorescent substrate), OXA-10. The settings on record: enzyme 350 pM, substrate FC5 50 μM. On the procedure:
as §1, §2, §3, §4, §5, §6, §7, §8, §9, §10, §11, §12, §13, §14

Another assay concerns the target T6, OXA-48 (Klebsiella pneumoniae, UniProt Q6XEC0).
T6 construct: purchased GenScript Biotech Co., Ltd
In words: Enzyme activity test (FC5 fluorescent substrate), OXA-48. The following applies: enzyme 650 pM, substrate FC5 125 μM. On the procedure:
as §1, §2, §3, §4, §5, §6, §7, §8, §9, §10, §11, §12, §13, §14

Another assay has as its target T7, CTX-M-15 (Escherichia coli, UniProt Q9EXV5).
T7 construct: purchased GenScript Biotech Co., Ltd
Description: Enzyme activity test (FC5 fluorescent substrate), CTX-M-15. The following applies: enzyme 45 pM, substrate FC5 50 μM. The method, then:
as §1, §2, §3, §4, §5, §6, §7, §8, §9, §10, §11, §12, §13, §14

For a further assay, the target named is T8, OXA-23 (Acinetobacter baumannii, UniProt Q9L4P2).
T8 construct: purchased GenScript Biotech Co., Ltd
T8 sequence (Q9L4P2 18-273): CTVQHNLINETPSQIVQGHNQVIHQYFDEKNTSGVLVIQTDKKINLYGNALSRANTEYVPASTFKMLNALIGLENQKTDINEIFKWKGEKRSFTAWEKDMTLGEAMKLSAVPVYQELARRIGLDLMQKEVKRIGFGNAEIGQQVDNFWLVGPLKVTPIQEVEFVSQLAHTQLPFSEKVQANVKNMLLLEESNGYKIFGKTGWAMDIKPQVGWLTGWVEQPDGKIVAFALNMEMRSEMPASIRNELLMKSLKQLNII
In words: Enzyme activity test (FC5 fluorescent substrate), OXA-23. The settings on record: enzyme 650 pM, substrate FC5 50 μM. The method, then:
as §1, §2, §3, §4, §5, §6, §7, §8, §9, §10, §11, §12, §13, §14

The target in a further assay is NDM-5 (Klebsiella pneumoniae, UniProt C7C422, M154L/V88L). In words: Enzyme activity test (FC5 fluorescent substrate), NDM-5. The method, then:
as §1, §2, §3, §4, §5, §6, §7, §8
e) The 384-well plate was centrifuged quickly and incubated for 10 minutes at room temperature. […]
as §11, §12, §15, §14

For another assay, the target named is Ampc (UniProt P24735). In words: Enzyme activity test (FC5 fluorescent substrate), AmpC. The following applies: enzyme 25 pM, substrate FC5 15 μM. On the procedure:
as §1, §2, §3, §4, §5, §6, §7, §8, §9, §10, §11, §12, §13, §14

A further assay concerns the target T9, KPC-2 (Klebsiella pneumoniae, UniProt Q9F663).
T9 construct: purchased GenScript Biotech Co., Ltd
Description: Enzyme activity test (FC5 fluorescent substrate), KPC-2. The settings on record: enzyme 45 pM, substrate FC5 25 μM. On the procedure:
as §1, §2, §3, §4, §5, §6, §7, §8, §9, §10, §11, §12, §13, §14

In general, IC50 refers to the midpoint of a concentration-inhibition curve. Higher therefore signals weaker potency.

T9 sequence (Q9F663 25-293 limits assumed): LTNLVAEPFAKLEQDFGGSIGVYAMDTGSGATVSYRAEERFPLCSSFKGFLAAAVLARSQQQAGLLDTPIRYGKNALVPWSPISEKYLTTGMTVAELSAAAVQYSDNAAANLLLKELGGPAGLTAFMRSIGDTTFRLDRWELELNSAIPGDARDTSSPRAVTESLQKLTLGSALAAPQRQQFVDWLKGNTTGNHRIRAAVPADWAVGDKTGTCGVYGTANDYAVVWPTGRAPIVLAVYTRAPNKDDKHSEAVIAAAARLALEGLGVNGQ
NDM-5, sequence (C7C422 29-270 V88L/M154L): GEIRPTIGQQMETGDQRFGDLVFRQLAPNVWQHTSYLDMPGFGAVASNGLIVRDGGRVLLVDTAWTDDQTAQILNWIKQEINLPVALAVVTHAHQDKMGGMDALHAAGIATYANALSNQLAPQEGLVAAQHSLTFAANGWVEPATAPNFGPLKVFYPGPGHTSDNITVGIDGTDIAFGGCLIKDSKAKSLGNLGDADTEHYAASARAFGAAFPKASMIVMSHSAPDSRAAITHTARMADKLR
T6 sequence (Q6XEC0 23-265 limits assumed): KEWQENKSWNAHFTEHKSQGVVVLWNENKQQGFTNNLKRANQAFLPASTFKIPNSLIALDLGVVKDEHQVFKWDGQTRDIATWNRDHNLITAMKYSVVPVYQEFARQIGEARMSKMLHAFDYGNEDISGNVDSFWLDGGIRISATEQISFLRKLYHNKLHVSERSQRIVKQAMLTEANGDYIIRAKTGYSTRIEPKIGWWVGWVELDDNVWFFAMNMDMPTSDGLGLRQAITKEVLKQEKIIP
T7 sequence (Q9EXV5 entry or part of it): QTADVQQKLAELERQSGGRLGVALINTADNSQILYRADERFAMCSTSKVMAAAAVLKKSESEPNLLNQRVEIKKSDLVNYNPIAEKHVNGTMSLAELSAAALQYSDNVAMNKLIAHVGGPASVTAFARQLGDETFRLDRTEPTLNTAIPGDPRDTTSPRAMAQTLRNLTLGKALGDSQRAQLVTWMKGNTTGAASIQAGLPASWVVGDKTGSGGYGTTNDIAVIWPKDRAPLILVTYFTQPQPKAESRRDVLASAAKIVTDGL

As to `NC(=O)[C@@H]1CC[C@@H]2CN1C(=O)N2OS(=O)(=O)O` [Avibactam, reference compound], the IC50 was greater than 10000 nM against VIM-2; greater than 10000 nM at IMP-1; greater than 10000 nM against NDM-1; greater than 10000 nM at VIM-1; 5760 nM against OXA-10. Besides, the “activity against class A and class C serine β-lactamases (SBL)” value in assay [1] (class A and class C SBL) is “good activity”. Moreover, the “inhibitory effect on class B metal-zinc ion β-lactamase (MBL)” value in [1] (class B MBL) is “no inhibitory effect”. Besides, in assay [1] (class D SBL), the “inhibitory activity against the class D serine β-lactamase” value was “low inhibitory activity”.

For `CSc1ccc2c(c1C(=O)O)OB(O)[C@@H]1C[C@H]21` [Compound 1], the IC50 was 0.2 nM against OXA-48; 1.3 nM at CTX-M-15; 0.1 nM on VIM-2; 0.8 nM at OXA-23; 15.3 nM on NDM-5; less than 5.1 nM against IMP-1. Moreover, the 50% inhibitory concentration (IC50) at NDM-1 amounted to 13.1 nM; on VIM-1 it was 1.5 nM; on Ampc, 17.2 nM; against OXA-10 it was 10 nM; against KPC-2, 1.2 nM.

Consider `O=C(O)c1c(S[C@H]2CCOC2)ccc2c1OB(O)[C@@H]1C[C@H]21` [Compound 4], for which the IC50 at OXA-48 is 0.07 nM; against CTX-M-15 it was 1.1 nM; at VIM-2, less than 0.05 nM; against OXA-23, 1.3 nM; against NDM-5, 2.3 nM; at IMP-1, less than 5.1 nM. In addition, the IC50 was 1.9 nM at NDM-1; less than 0.05 nM on VIM-1; 33.8 nM at Ampc; 3.7 nM at OXA-10; 1.5 nM against KPC-2.
